Experimental data taken from the NIST ThermoML archive (doi:10.1021/je050173+).

Experiments:
[1] = for surface tension liquid-gas: Maximal bubble pressure; for viscosity / mass density / thermal conductivity: 101.33 kPa; for viscosity / mass density / thermal conductivity / vapor or sublimation pressure: Liquid; for thermal conductivity: Hot wire method
[2] = molar heat capacity at constant pressure; settings: 101.33 kPa, Liquid

C[Si]1(C)O[Si](C)(C)O[Si](C)(C)O[Si](C)(C)O[Si](C)(C)O1 [decamethylcyclopentasiloxane]
Settings	mass density [kg/m3]	molar heat capacity at constant pressure [J/K/mol]	surface tension liquid-gas [mN/m]	thermal conductivity [W/m/K]	vapor or sublimation pressure [kPa]	viscosity [mPa·s]
[1], 293.15 K	–	–	18.04	–	–	4.28
[1], 295.05 K	956.75	–	–	–	–	–
[1], 298.15 K	–	–	–	0.1255	–	3.87
[1], 300.1 K	951.14	–	–	–	–	–
[1], 303.15 K	–	–	17.4	–	–	3.48
[1], 303.95 K	946.93	–	–	–	–	–
[1], 310.3 K	939.94	–	–	–	–	–
[1], 313.15 K	–	–	16.71	–	–	2.82
[1], 313.17 K	936.67	–	–	–	–	–
[1], 320.5 K	928.72	–	–	–	–	–
[1], 323.15 K	–	–	15.99	–	–	2.38
[1], 325.6 K	923.12	–	–	–	–	–
[1], 332.95 K	–	–	–	–	–	2.02
[1], 333.15 K	915.02	–	15.42	–	–	–
[1], 340.9 K	906.3	–	–	–	–	–
[1], 343.15 K	–	–	14.67	0.1186	–	1.71
[1], 346.05 K	900.69	–	–	–	–	–
[1], 348.23 K	–	–	–	–	0.703	–
[1], 350.87 K	–	–	–	–	0.801	–
[1], 351.11 K	–	–	–	–	0.82	–
[1], 353.1 K	892.8	–	–	–	–	–
[1], 353.15 K	–	–	13.98	–	–	1.48
[1], 355.91 K	–	–	–	–	1.103	–
[1], 357.29 K	–	–	–	–	1.207	–
[1], 361.2 K	–	–	–	–	1.468	–
[1], 363.15 K	–	–	13.3	–	–	–
[1], 366.4 K	878.24	–	–	–	–	–
[1], 370.08 K	–	–	–	–	2.381	–
[1], 373.15 K	870.77	–	12.64	–	–	1.11
[1], 374.37 K	–	–	–	–	2.913	–
[1], 377.85 K	–	–	–	–	3.452	–
[1], 378.07 K	–	–	–	–	3.482	–
[1], 380.74 K	–	–	–	–	3.901	–
[1], 381.7 K	861.4	–	–	–	–	–
[1], 391.9 K	850.17	–	–	–	–	–
[1], 393.15 K	–	–	11.28	–	–	0.86
[1], 394.66 K	–	–	–	–	7.191	–
[1], 397 K	844.55	–	–	–	–	–
[1], 398.63 K	–	–	–	–	8.45	–
[1], 402.72 K	–	–	–	–	9.938	–
[1], 407.2 K	833.32	–	–	–	–	–
[1], 412.81 K	–	–	–	–	14.52	–
[1], 413.15 K	826.73	–	9.93	–	–	0.69
[1], 416.46 K	–	–	–	–	16.55	–
[1], 417.4 K	822.08	–	–	–	–	–
[1], 422.5 K	816.45	–	–	–	–	–
[1], 423.94 K	–	–	–	–	21.39	–
[1], 432.91 K	–	–	–	–	28.6	–
[1], 433.15 K	804.71	–	8.57	–	–	–
[1], 439.98 K	–	–	–	–	35.47	–
[1], 442.9 K	793.98	–	–	–	–	–
[1], 448.41 K	–	–	–	–	45.28	–
[1], 453.15 K	782.6	–	–	–	–	0.46
[1], 455.39 K	–	–	–	–	54.85	–
[1], 462.39 K	–	–	–	–	66.09	–
[1], 473.15 K	–	–	–	–	–	0.39
[1], 479.53 K	–	–	–	–	100.9	–
[1], 493.15 K	–	–	–	–	–	0.33
[2], 288.78 K	–	636.3	–	–	–	–
[2], 293.13 K	–	638.5	–	–	–	–
[2], 297.95 K	–	640.6	–	–	–	–
[2], 303.18 K	–	643.1	–	–	–	–
[2], 308.95 K	–	644.5	–	–	–	–
[2], 313.15 K	–	647.7	–	–	–	–
[2], 319 K	–	650.4	–	–	–	–
[2], 323.15 K	–	652.4	–	–	–	–
[2], 329.05 K	–	655.1	–	–	–	–
[2], 334.74 K	–	657.9	–	–	–	–
[2], 338.5 K	–	659.5	–	–	–	–
[2], 342.08 K	–	661.2	–	–	–	–
[2], 349.25 K	–	664.5	–	–	–	–
[2], 352.2 K	–	667.1	–	–	–	–
[2], 356.83 K	–	668	–	–	–	–
[2], 361.28 K	–	670.1	–	–	–	–
[2], 366.35 K	–	672.4	–	–	–	–
[2], 370.25 K	–	674.2	–	–	–	–
[2], 375.43 K	–	676.6	–	–	–	–
[2], 380.95 K	–	679.1	–	–	–	–
[2], 388.65 K	–	682.5	–	–	–	–
[2], 391.43 K	–	684	–	–	–	–
[2], 399.84 K	–	687.9	–	–	–	–
[2], 401.55 K	–	688.6	–	–	–	–
[2], 407.15 K	–	691.2	–	–	–	–
[2], 412.77 K	–	693.8	–	–	–	–
[2], 419.95 K	–	697.1	–	–	–	–
[2], 425.95 K	–	698.5	–	–	–	–
[2], 433.28 K	–	703.2	–	–	–	–
[2], 439.98 K	–	706.3	–	–	–	–
[2], 444.9 K	–	709.2	–	–	–	–
[2], 452.4 K	–	711.9	–	–	–	–
[2], 463.15 K	–	716.9	–	–	–	–
[2], 469.05 K	–	719.5	–	–	–	–
[2], 473.15 K	–	721.5	–	–	–	–

C[Si]1(C)O[Si](C)(C)O[Si](C)(C)O1 [hexamethylcyclotrisiloxane]
Settings	mass density [kg/m3]	molar heat capacity at constant pressure [J/K/mol]	surface tension liquid-gas [mN/m]	thermal conductivity [W/m/K]	vapor or sublimation pressure [kPa]	viscosity [mPa·s]
[1], 343.15 K	872.69	–	–	0.1026	–	0.48
[1], 344.55 K	–	–	13.54	–	–	–
[1], 347.35 K	–	–	13.32	–	–	–
[1], 347.64 K	–	–	–	–	13.85	–
[1], 348.15 K	–	–	–	–	–	0.46
[1], 348.7 K	865.41	–	–	–	–	–
[1], 350.13 K	–	–	–	–	15.28	–
[1], 351.45 K	–	–	–	–	16.19	–
[1], 353.15 K	–	–	–	–	–	0.44
[1], 353.95 K	–	–	12.9	–	–	–
[1], 354.65 K	856.98	–	–	–	–	–
[1], 355.59 K	–	–	–	–	19.01	–
[1], 357.4 K	854.11	–	–	–	–	–
[1], 358.15 K	–	–	–	–	–	0.42
[1], 358.45 K	–	–	12.68	–	–	–
[1], 359.15 K	852.6	–	–	–	–	–
[1], 360.17 K	–	–	–	–	22.55	–
[1], 361.61 K	–	–	–	–	23.75	–
[1], 362.4 K	–	–	–	–	24.47	–
[1], 363.15 K	–	–	12.33	–	–	0.4
[1], 365.71 K	–	–	–	–	27.62	–
[1], 366.1 K	842.76	–	–	–	–	–
[1], 368.15 K	–	–	12.02	–	–	0.39
[1], 368.81 K	–	–	–	–	30.71	–
[1], 369.65 K	838	–	–	–	–	–
[1], 372.34 K	–	–	–	–	34.63	–
[1], 372.68 K	–	–	–	–	35.01	–
[1], 373.15 K	833.47	–	11.71	–	–	0.37
[1], 378.15 K	–	–	11.4	–	–	0.35
[1], 379.16 K	825.64	–	–	–	–	–
[1], 381.37 K	–	–	–	–	46.63	–
[1], 383.15 K	820.39	–	11.09	–	–	0.34
[1], 383.78 K	–	–	–	–	50.31	–
[1], 387.85 K	814.16	–	–	–	–	–
[1], 387.95 K	–	–	–	–	57.22	–
[1], 388.15 K	–	–	–	–	–	0.33
[1], 393.15 K	–	–	–	–	–	0.32
[1], 397.75 K	–	–	–	–	76.52	–
[1], 407.63 K	–	–	–	–	100.85	–
[2], 339.9 K	–	404.5	–	–	–	–
[2], 343.15 K	–	405.9	–	–	–	–
[2], 345.03 K	–	406.7	–	–	–	–
[2], 353.15 K	–	410.4	–	–	–	–
[2], 357.92 K	–	412.3	–	–	–	–
[2], 361.2 K	–	413.8	–	–	–	–
[2], 365.09 K	–	415.6	–	–	–	–
[2], 370.16 K	–	418.1	–	–	–	–
[2], 374.79 K	–	420.1	–	–	–	–
[2], 379.42 K	–	421.8	–	–	–	–
[2], 383.15 K	–	423.6	–	–	–	–
[2], 388.06 K	–	425.6	–	–	–	–
[2], 393.14 K	–	428.1	–	–	–	–
[2], 398.01 K	–	430	–	–	–	–
[2], 400 K	–	431	–	–	–	–
[2], 404.89 K	–	433.2	–	–	–	–
